“Also recorded” adds a separate entry of the source. Read-outs that look alike come from different tables or passages of the source. Square brackets hold non-standard residues; d marks the D form. Ends that are not written are not given here.
Key:
[1] = tested on: dissociated cerebral cortical cultures (neurons); assay type: cell-based, rat; conditions: 5 days
[2] = tested on: mice; test: fetal alcohol syndrome (FAS) model in pregnant mice; conditions: for fetal demise rate: pretreatment 30 minutes prior to alcohol on E8, 20 μg (each), injection, assessed E18, vs alcohol group
[3] = tested on: choline acetyl transferase activity; conditions: ApoE-deficient mice with reduced choline acetyl transferase activity; cited from earlier work
[4] = tested on: AF64A-treated rats; test: AF64A cholinotoxicity in adult rats, Morris water maze; assay type: in vivo; conditions: for Morris water maze, summation of the two daily tests, vs AF64A / Morris water maze, summation of the two daily tests: 10 microgram per rat per day under the tongue
Source text: FIGS. 14A and B illustrate the effect of oral administration of D-NAPVSIPQ+D-SALLRSIPA on learning and memory in rats treated with the cholinotoxin AF-64A. Short-term memory processes were examined by performance in the Morris water maze, measuring the time required to find the hidden platform in the second of two daily trials. The platform location and the starting point in which the animal was placed in the water were held constant within each pair of daily trials, but both locations were changed every day. For the first test, both the platform and the animal were situated in a new location with regard to the pool (with the pool being immobile). The experiment was performed as follows: the animal was positioned on the platform for 0.5 minute, then placed in the water. […] After 0.5 minute on the platform, the animal was placed back in the water (in the previous position) for an additional second test (FIG. 14B) and search for the hidden platform (retained in the previous position). The time required to reach the platform in the second trial was recorded, indicative of short-term (working) memory. All measurements were performed using the computerized video-assisted HVS water maze system (HVS Image Ltd. Hampton, UK). Animals were tested for four days to eliminate random memory defective animals. The designated n is the number of animals tested. Each point is the mean+the standard error.
Rats (male Wistar, 300-350 g) were subjected to two daily tests in a water maze, including a hidden platform (Morris, J. Neurosci. Methods 11:47-60 (1984) and Gordon et al., Neurosci. Lett. 199:1-4 (1995); Gozes et al., J. Neurobiol. 33:329-342 (1997)). Every day for the first test, both the platform and the animal were situated in a new location with regard to the pool (with the pool being immobile). The experiment was performed as follows: the animal was positioned on the platform for 0.5 minutes then placed in the water. The time required to reach the platform (indicative of learning and intact reference memory) was measured (first test). After 0.5 minute on the platform, the animal was placed back in the water (in the previous position) for an additional second test and search for the hidden platform (retained in the previous position). The time required to reach the platform in the second trial was recorded, indicative of short-term (working) memory. All measurements were performed using the computerized video-assisted HVS water maze system (HVS Image Ltd. Hampton, UK). Animals were tested for four days to eliminate random memory defective animals. The best performers were injected i.c.v. at a rate of 0.21 μl/min. with the cholinotoxin ethylcholine aziridium (AF64A, 3 nmolI2 μl/side), control animals received an injection of saline (Gozes et al, Proc. Natl. Acad. Sci. USA 93:427-432 (1996)).
Animals were allowed to recover for one week, followed by daily exposure to three micrograms of D-SAL+three micrograms of D-NAP, in 20 microliter saline, applied orally on the tongue. After a week of oral peptide application, the animals were subjected to two daily tests in the water maze (as above). During the test-period, animals were also given an oral administration of peptide or vehicle (carrier) an hour before the daily test.
FIG. 14C illustrates the effect of oral administration of D-SALLRSIPA alone on learning and memory in rats treated with the cholinotoxin AF-64A. Rats were treated with the cholinotoxin AF-64A and D-SALLRSIPA as described in Gozes et al., J. Pharmacol. Exp. Therap. 293: 1091-1098 (2000), except that D-SALLRSIPA was delivered to AF64A-treated rats was as follows: 10 microgram D-SALLRSIPA (D-SAL) per rat (250-300 g) per day in 50 microliter saline under the tongue, using a micropipette. Peptides were applied once daily for three days, a week after the AF64A lesion. After a 2-day cessation, peptides were applied once daily for another 5 days and tested from day three on. […]

[5] = single peptide, 1 μM tetrodotoxin, neuronal cell counts

Substance | survival-promoting activity (preventing neuronal cell death associated with electrical blockade with TTX) [1, 5] | fetal demise rate [2] | cholinergic function [3] | other results
Asn-Ala-Pro-Val-Ser-Ile-Pro-Gln [D-NAP] | very similar, with each exhibiting a complex dose response with two apparent maxima; also recorded: virtually identical in neuronal survival activity in vitro | significantly reduced the fetal demise rate; also recorded: prevents fetal demises |  | 
Asn-Ala-Pro-Val-Ser-Ile-Pro-Gln [L-NAP, reference compound] | very similar, with each exhibiting a complex dose response with two apparent maxima; also recorded: virtually identical in neuronal survival activity in vitro |  | significantly increased cholinergic function to control levels | 
D-NA{L-P}VSIPQ: NAPVSIPQ with all amino acids in the D-form, except the third proline residue in the L-form |  |  |  | survival-promoting activity (preventing neuronal cell death associated with electrical blockade with TTX) [1]: retained survival-promoting activity and was effective in cell culture in preventing neuronal cell death
SALLRSIPA [L-SAL] |  |  | less effective | 
SALLRSIPA [reference compound] | identical in both potency and efficacy; also recorded: virtually identical in neuronal survival activity in vitro |  |  | 
Ser-Ala-Leu-Leu-Arg-Ser-Ile-Pro-Ala [D-SAL] ([dS][dA][dL][dL][dR][dS][dI][dP][dA]) | identical in both potency and efficacy; also recorded: virtually identical in neuronal survival activity in vitro | significantly reduced the fetal demise rate; also recorded: prevents fetal demises |  | learning and memory, overall conclusion ([4]; D-SALLRSIPA alone, oral, AF64A-treated rats): effective on its own; Morris water maze, summation of the two daily tests, vs AF64A ([4]; Day 1): P<0.04 D-SALLRSIPA-AF64A vs. AF64A; Morris water maze, summation of the two daily tests ([4]; Day 2): not significantly different from either AF64A animals or control; Morris water maze, summation of the two daily tests ([4]; Day 3): No difference; Morris water maze, summation of the two daily tests ([4]; Day 4): No difference; Morris water maze, summation of the two daily tests, vs AF64A ([4]; Day 5, t-test): P<0.04 D-SALLRSIPA-AF64A vs. AF64A; fetal death ([2]; oral by gavage 30 minutes prior to alcohol, 40 μg, assessed on E18): prevent fetal death

— patent US8017578B2, “Orally active peptides that prevent cell damage and death” (The United States of America as represented by the …, priority 1999, dated 2011)
